Measured values published in patent US9850283B2, “Macrocyclic inhibitors of the PD-1/PD-L1 and CD80(B7-1)/PD-L1 protein/protein interactions” (BRISTOL-MYERS SQUIBB COMPANY, priority 2013, dated 2017).
Like-named read-outs stand apart in the source and are kept apart here. Positions of bridges follow the written chain, without caps; N, C: chain ends. Non-standard residues stand in square brackets, D forms with d. Residues, ends and D or L forms follow the SMILES beside them. Tyr(3,5-Br2) = N[C@@H](Cc1cc(Br)c(O)c(Br)c1)C(=O)O; Phe(4-CF3) = N[C@@H](Cc1ccc(C(F)(F)F)cc1)C(=O)O; Phe(4-tBu) = CC(C)(C)c1ccc(C[C@H](N)C(=O)O)cc1; Hyp = O=C(O)[C@@H]1C[C@@H](O)CN1; NMeF = CN[C@@H](Cc1ccccc1)C(=O)O; NMeNle = CCCC[C@H](NC)C(=O)O; Pip = O=C(O)[C@@H]1CCCCN1; NMeA = CN[C@@H](C)C(=O)O; Orn = NCCC[C@H](N)C(=O)O; Dap = NC[C@H](N)C(=O)O; Sar = CNCC(=O)O

Key:
[1] = molecular target: T1, LK35.2-hPD-L1 cells / PE-labeled PD-1-Ig (Homo sapiens, UniProt Q9NZQ7); test: LK35.2-hPD-L1 cell binding high-content screening assay; type: cell-based; settings: cluster symbol, read-out: CBA IC50 cluster
T1 construct: expressed in transfected cells; host or cells: LK35.2 mouse B cell line
T1 sequence (Q9NZQ7 19-290): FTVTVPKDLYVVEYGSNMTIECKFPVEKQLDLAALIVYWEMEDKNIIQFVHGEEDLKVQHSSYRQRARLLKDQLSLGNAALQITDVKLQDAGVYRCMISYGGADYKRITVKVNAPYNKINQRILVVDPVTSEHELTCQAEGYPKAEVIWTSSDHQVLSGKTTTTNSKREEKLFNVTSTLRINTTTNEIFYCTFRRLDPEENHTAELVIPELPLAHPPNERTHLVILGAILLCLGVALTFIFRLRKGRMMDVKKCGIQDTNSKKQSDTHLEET
Outline: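 Binding of PE-conjugated human PD-1-Ig (1 nM final) to human PD-L1 stably expressed on a mouse B-cell line (LK35.2) was measured by high-content imaging after washes. Compound and labeled PD-1-Ig were co-incubated 1 h at 37 °C with cells in RPMI/10% FCS.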

[2] = molecular target: T2, Human PD-L1/PD-1 (Homo sapiens, UniProt Q9NZQ7); test: HTRF PD-1-Ig/PD-L1-His binding assay (human PD-L1); settings: cluster symbol; read-out: HTRF IC50 cluster
T2 construct: made in house; host or cells: HEK293T
T2 sequence (Q9NZQ7 with tags, fused parts or gaps): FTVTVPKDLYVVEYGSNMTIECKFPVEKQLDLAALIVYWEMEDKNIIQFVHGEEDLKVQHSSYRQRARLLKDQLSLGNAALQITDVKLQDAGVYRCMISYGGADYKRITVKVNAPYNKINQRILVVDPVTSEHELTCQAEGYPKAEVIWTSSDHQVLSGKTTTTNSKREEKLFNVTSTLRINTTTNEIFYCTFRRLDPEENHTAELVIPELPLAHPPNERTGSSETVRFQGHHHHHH
Outline: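 Steps: truncated PD-1-Ig and PD-L1-His fusions are incubated in dPBS containing 0.1% (w/v) BSA and 0.05% (v/v) Tween-20. Detection antibodies are then added (Eu cryptate anti-Ig at 1 nM final, APC anti-His at 20 nM final), and time-resolved FRET is measured.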

[3] = cell line of CBA not given (LK35.2-hPD-L1 or 293T-hPD-L1)
[4] = cell binding assay, cell line not given

Row | IC50 [1, 3] [nM] | IC50 [2] [nM] | IC50 [1, 4] [nM] | SMILES
1 | 4.78 to 72.9 | 6.76 to 30.3 | – | CCCC[C@H]1C(=O)N(C)CC(=O)N[C@@H](CC(=O)O)C(=O)N[C@@H](C(C)C)C(=O)N(C)[C@@H](Cc2ccccc2)C(=O)N[C@@H](Cc2cc(Br)c(O)c(Br)c2)C(=O)N(C)CC(=O)N[C@@H](Cc2c[nH]c3ccccc23)C(=O)N[C@@H](Cc2ccc(O)cc2)C(=O)N[C@@H](CC(C)C)C(=O)N[C@H](C(=O)NCC(N)=O)CSCC(=O)N[C@@H](Cc2ccccc2)C(=O)N(C)[C@@H](Cc2ccccc2)C(=O)N1C [Example 3113] ({CH2CO}-F[NMeF][NMeNle][Sar]DV[NMeF][Tyr(3,5-Br2)][Sar]WYLCG-NH2; thioether N-13)
2 | 4.78 to 72.9 | 6.76 to 30.3 | – | CCCC[C@@H]1C(=O)N(C)[C@H](CCCC)C(=O)N[C@@H](CCCN)C(=O)N[C@@H](C(=O)NCC(N)=O)CSCC(=O)N[C@@H](Cc2ccc(O)cc2)C(=O)N2CCNCC2C(=O)N[C@H](CC(N)=O)C(=O)N2CCC[C@H]2C(=O)N[C@H](Cc2c[nH]cn2)C(=O)N[C@@H](CC(C)C)C(=O)N2C[C@H](O)CC2C(=O)N[C@H](Cc2c[nH]c3ccccc23)C(=O)N[C@@H](CO)C(=O)N[C@@H](Cc2c[nH]c3ccccc23)C(=O)N1C (some centres unmarked) [Example 1220]
3 | 4.78 to 72.9 | > 30.5 | – | CCCC[C@H]1C(=O)N(C)CC(=O)N[C@@H](CC(=O)O)C(=O)N[C@@H](C(C)C)C(=O)N(C)[C@@H](Cc2ccccc2)C(=O)N[C@@H](Cc2ccc(O)cc2)C(=O)N(C)CC(=O)N[C@@H](Cc2c[nH]c3ccccc23)C(=O)N[C@@H](Cc2ccc(O)cc2)C(=O)N[C@@H](CC(C)C)C(=O)N[C@H](C(=O)NCC(N)=O)CSCC(=O)N[C@@H](Cc2ccc(C(F)(F)F)cc2)C(=O)N(C)[C@@H](Cc2ccccc2)C(=O)N1C [Example 3093] ({CH2CO}-[Phe(4-CF3)][NMeF][NMeNle][Sar]DV[NMeF]Y[Sar]WYLCG-NH2; thioether N-13)
4 | – | > 30.5 | > 74.3 | CCCC[C@H]1C(=O)N(C)[C@@H](CCCC)C(=O)N[C@@H](CCCNC(=N)N)C(=O)N[C@H](C(=O)NCC(N)=O)CSCC(=O)N[C@@H](Cc2ccc(C(C)(C)C)cc2)C(=O)N(C)[C@@H](C)C(=O)N[C@@H](CC(N)=O)C(=O)N2CCC[C@H]2C(=O)N[C@@H](Cc2cnc[nH]2)C(=O)N[C@@H](CC(C)C)C(=O)N2C[C@H](O)C[C@H]2C(=O)N[C@@H](Cc2c[nH]c3ccccc23)C(=O)N[C@@H](CO)C(=O)N[C@@H](Cc2c[nH]c3ccccc23)C(=O)N1C [Example 7045] ({CH2CO}-[Phe(4-tBu)][NMeA]NPHL[Hyp]WSW[NMeNle][NMeNle]RCG-NH2; thioether N-14)
5 | 4.78 to 72.9 | 6.76 to 30.3 | – | CCCC[C@H]1C(=O)N(C)CC(=O)N[C@@H](CC(=O)O)C(=O)N[C@@H](C(C)C)C(=O)N(C)[C@@H](Cc2ccccc2)C(=O)N[C@@H](Cc2ccc(O)cc2)C(=O)N(C)CC(=O)N[C@@H](Cc2c[nH]c3ccccc23)C(=O)N[C@@H](Cc2ccc(O)cc2)C(=O)N[C@@H](CCN)C(=O)N[C@H](C(=O)NCC(N)=O)CSCC(=O)N[C@@H](Cc2ccccc2)C(=O)N(C)[C@@H](Cc2ccccc2)C(=O)N1C [Example 3162] (HELM PEPTIDE1{[O=C(C[*:3])[*:2]].F.[meF].[CCCC[C@@H](C(=O)[*:2])N(C)[*:1]].[Sar].D.V.[meF].Y.[Sar].W.Y.[Dab].C.G.[am]}$PEPTIDE1,PEPTIDE1,1:R3-14:R3$$$V2.0)
6 | 0.158 to 4.71 | 6.76 to 30.3 | – | CCCC[C@H]1C(=O)N(C)[C@@H](CCCC)C(=O)N[C@@H](CCCN)C(=O)N[C@H](C(=O)NCC(N)=O)CSCC(=O)N[C@@H](Cc2ccc(O)cc2)C(=O)N2CCCC[C@H]2C(=O)N[C@@H](CC(=O)O)C(=O)N2CCC[C@H]2C(=O)N[C@@H](CN)C(=O)N[C@@H](CC(C)C)C(=O)N2C[C@H](O)C[C@H]2C(=O)N[C@@H](Cc2c[nH]c3ccccc23)C(=O)N[C@@H](CO)C(=O)N[C@@H](Cc2c[nH]c3ccccc23)C(=O)N1C [Example 1235] ({CH2CO}-Y[Pip]DP[Dap]L[Hyp]WSW[NMeNle][NMeNle][Orn]CG-NH2; thioether N-14)
7 | – | 0.385 to 6.74 | 0.158 to 4.71 | CCCC[C@H]1C(=O)N(C)[C@@H](CCCC)C(=O)N[C@@H](CO)C(=O)N[C@H](C(=O)NCC(N)=O)CSCC(=O)N[C@@H](Cc2ccc(O)cc2)C(=O)N(C)[C@@H](C)C(=O)N[C@@H](CC(N)=O)C(=O)N2CCC[C@H]2C(=O)N[C@@H](CO)C(=O)N[C@@H](CC(C)C)C(=O)N2C[C@H](O)C[C@H]2C(=O)N[C@@H](Cc2c[nH]c3ccccc23)C(=O)N[C@@H](CO)C(=O)N[C@@H](Cc2c[nH]c3ccccc23)C(=O)N1C [Example 5118] ({CH2CO}-Y[NMeA]NPSL[Hyp]WSW[NMeNle][NMeNle]SCG-NH2; thioether N-14)
